Test results taken from patent EP3782997A1, “FUSED PYRIMIDINE COMPOUNDS AND PHARMACEUTICAL COMPOSITIONS THEREOF FOR THE TREATMENT OF FIBROTIC DISEASES” (Galapagos N.V., priority 2019, dated 2021).

The molecules below were run against hENPP2 (Homo sapiens, UniProt Q13822) (assay: Human ENPP2 (hENPP2) biochemical assay using LPC as substrate). Conditions: 150 µM LPC (palmitoyl 16:0), 37°C for 30 min.
Summary of the method: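 IC50 came from compound series (top 50 µM, 1/3 steps) incubated 30 min at 37°C with 1 or 3 µg/mL final enzyme and palmitoyl LPC added at 150 µM, pH 8.5 Tris buffer with Ca2+. Choline output measured as quinoneimine dye at 555 nm via coupled oxidase/HRP/TOOS detection.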

| SMILES | IC50 [nM] |
| --- | --- |
| COc1cc(Nc2ncc3c(n2)CN(C2CCN(C(=O)c4ccc5[nH]nnc5c4)CC2)C3)cc(OC)c1 [compound 27, 1H-benzotriazol-5-yl-[4-[2-(3,5-dimethoxyanilino)-5,7-dihydropyrrolo[3,4-d]pyrimidin-6-yl]-1-piperidyl]methanone] | 100 to 500 |
| Cc1cc(Nc2ncc3c(n2)CN(C2CN(C(=O)c4ccc5[nH]c(=O)oc5c4)C2)C3)cc(C(F)(F)F)c1 [compound 28, 6-[3-[2-[3-methyl-5-(trifluoromethyl)anilino]-5,7-dihydropyrrolo[3,4-d]pyrimidin-6-yl]azetidine-1-carbonyl]-3H-1,3-benzoxazol-2-one] | 0.01 to 100 |
| O=C(c1ccc2[nH]nnc2c1)N1CC(N2Cc3cnc(Nc4ccc(C(F)(F)F)cc4)nc3C2)C1 [compound 30, 1H-benzotriazol-5-yl-[3-[2-[4-(trifluoromethyl)anilino]-5,7-dihydropyrrolo[3,4-d]pyrimidin-6-yl]azetidin-1-yl]methanone] | 0.01 to 100 |
| Cc1cc(C)cc(Nc2ncc3c(n2)CN(C2CN(C(=O)c4cc[nH]c(=O)c4)C2)C3)c1 [compound 32, 4-[3-[2-(3,5-dimethylanilino)-5,7-dihydropyrrolo[3,4-d]pyrimidin-6-yl]azetidine-1-carbonyl]-1H-pyridin-2-one] | > 1000 |
| Cc1cc(C)cc(Nc2ncc3c(n2)CN(C2CCN(C(=O)c4ccc5[nH]c(=O)oc5c4)C(C)C2)C3)c1 (stereo not shown) [compound 35, 6-[4-[2-(3,5-dimethylanilino)-5,7-dihydropyrrolo[3,4-d]pyrimidin-6-yl]-2-methyl-piperidine-1-carbonyl]-3H-1,3-benzoxazol-2-one] | 0.01 to 100 |
| Cc1cc(C)cc(Nc2ncc3c(n2)CN(C2CCN(C(=O)c4ccc5[nH]nnc5c4)CC2(F)F)C3)c1 (stereo not shown) [compound 37, 1H-benzotriazol-5-yl-[4-[2-(3,5-dimethylanilino)-5,7-dihydropyrrolo[3,4-d]pyrimidin-6-yl]-3,3-difluoro-1-piperidyl]methanone] | 0.01 to 100 |
| Cc1cc(C)cc(Nc2ncc3c(n2)CN(C2CN(C(=O)c4ccc(S(N)(=O)=O)cc4)C2)C3)c1 [compound 38, 4-[3-[2-(3,5-dimethylanilino)-5,7-dihydropyrrolo[3,4-d]pyrimidin-6-yl]azetidine-1-carbonyl]benzenesulfonamide] | 100 to 500 |
| Cc1cc(C)cc(Nc2ncc3c(n2)CN(C2CCCN(C(=O)c4ccc5[nH]c(=O)oc5c4)C2)C3)c1 (stereo not shown) [compound 39, 6-[3-[2-(3,5-dimethylanilino)-5,7-dihydropyrrolo[3,4-d]pyrimidin-6-yl]piperidine-1-carbonyl]-3H-1,3-benzoxazol-2-one] | > 1000 |
| Cc1cc(C)cc(Nc2ncc3c(n2)CN(C2CC4(C2)CN(C(=O)c2ccc5[nH]nnc5c2)C4)C3)c1 [compound 41, 1H-benzotriazol-5-yl-[6-[2-(3,5-dimethylanilino)-5,7-dihydropyrrolo[3,4-d]pyrimidin-6-yl]-2-azaspiro[3.3]heptan-2-yl]methanone] | 500 to 1000 |
| Cc1cncc(Nc2ncc3c(n2)CN(C2CN(C(=O)c4ccc5[nH]nnc5c4)C2)C3)c1 [compound 43, 1H-benzotriazol-5-yl-[3-[2-[(5-methyl-3-pyridyl)amino]-5,7-dihydropyrrolo[3,4-d]pyrimidin-6-yl]azetidin-1-yl]methanone] | 500 to 1000 |
| Cc1cncc(Nc2ncc3c(n2)CN(C2CCN(C(=O)c4ccc5[nH]nnc5c4)C2)C3)c1 (stereo not shown) [compound 44, 1H-benzotriazol-5-yl-[3-[2-[(5-methyl-3-pyridyl)amino]-5,7-dihydropyrrolo[3,4-d]pyrimidin-6-yl]pyrrolidin-1-yl]methanone] | > 1000 |
| Cc1cncc(Nc2ncc3c(n2)CN(C2CCN(C(=O)c4ccc(S(N)(=O)=O)cc4)C2)C3)c1 (stereo not shown) [compound 45, 4-[3-[2-[(5-methyl-3-pyridyl)amino]-5,7-dihydropyrrolo[3,4-d]pyrimidin-6-yl]pyrrolidine-1-carbonyl]benzenesulfonamide] | > 1000 |
| Cn1nc(C(C)(C)C)cc1Nc1ncc2c(n1)CN(C1CN(C(=O)c3ccc4[nH]nnc4c3)C1)C2 [compound 46, 1H-benzotriazol-5-yl-[3-[2-[(5-tert-butyl-2-methyl-pyrazol-3-yl)amino]-5,7-dihydropyrrolo[3,4-d]pyrimidin-6-yl]azetidin-1-yl]methanone] | > 1000 |
| Cc1cncc(Nc2ncc3c(n2)CN(C2CN(C(=O)c4ccc(S(N)(=O)=O)cc4)C2)C3)c1 [compound 48, 4-[3-[2-[(5-methyl-3-pyridyl)amino]-5,7-dihydropyrrolo[3,4-d]pyrimidin-6-yl]azetidine-1-carbonyl]benzenesulfonamide] | > 1000 |
| Cc1cncc(Nc2ncc3c(n2)CN(C2CCN(C(=O)c4ccc5[nH]nnc5c4)CC2)C3)c1 [compound 49, 1H-benzotriazol-5-yl-[4-[2-[(5-methyl-3-pyridyl)amino]-5,7-dihydropyrrolo[3,4-d]pyrimidin-6-yl]-1-piperidyl]methanone] | 500 to 1000 |
| Cn1nc(C(C)(C)C)cc1Nc1ncc2c(n1)CN(C1CCN(C(=O)c3ccc4[nH]nnc4c3)CC1)C2 [compound 50, 1H-benzotriazol-5-yl-[4-[2-[(5-tert-butyl-2-methyl-pyrazol-3-yl)amino]-5,7-dihydropyrrolo[3,4-d]pyrimidin-6-yl]-1-piperidyl]methanone] | > 1000 |
| O=C(c1ccc2[nH]nnc2c1)N1CC(N2Cc3cnc(Nc4cc(F)cc(F)c4)nc3C2)C1 [compound 53, 1H-benzotriazol-5-yl-[3-[2-(3,5-difluoroanilino)-5,7-dihydropyrrolo[3,4-d]pyrimidin-6-yl]azetidin-1-yl]methanone] | 100 to 500 |
| O=C(c1ccc2[nH]c(=O)oc2c1)N1CCC(N2Cc3cnc(Nc4cc(F)cc(F)c4)nc3C2)CC1 [compound 55, 6-[4-[2-(3,5-difluoroanilino)-5,7-dihydropyrrolo[3,4-d]pyrimidin-6-yl]piperidine-1-carbonyl]-3H-1,3-benzoxazol-2-one] | 100 to 500 |
| Cc1cc(C)nc(Nc2ncc3c(n2)CN(C2CCN(C(=O)c4ccc5nn[nH]c5c4)CC2)C3)c1 [compound 56, 3H-benzotriazol-5-yl-[4-[2-[(4,6-dimethyl-2-pyridyl)amino]-5,7-dihydropyrrolo [3,4-d]pyrimidin-6-yl]-1-piperidyl]methanone] | > 1000 |
| N#Cc1ccc(Nc2ncc3c(n2)CN(C2CCN(C(=O)c4ccc5[nH]nnc5c4)CC2)C3)cc1 [compound 59, 4-[[6-[1-(1H-benzotriazole-5-carbonyl)-4-piperidyl]-5,7-dihydropyrrolo[3,4-d]pyrimidin-2-yl]amino]benzonitrile] | 0.01 to 100 |

Results, then the molecule that gave them:

| IC50 [nM] | SMILES |
| --- | --- |
| 0.01 to 100 | Cc1cc(Nc2ncc3c(n2)CN(C2CN(C(=O)c4ccc5nn[nH]c5c4)C2)C3)cc(C(F)(F)F)c1 [compound 29, 3H-benzotriazol-5-yl-[3-[2-[3-methyl-5-(trifluoromethyl)anilino]-5,7-dihydropyrrolo[3,4-d]pyrimidin-6-yl]azetidin-1-yl]methanone] |
| 0.01 to 100 | COc1cc(Nc2ncc3c(n2)CN(C2CN(C(=O)c4ccc5[nH]nnc5c4)C2)C3)cc(OC)c1 [compound 31, 1H-benzotriazol-5-yl-[3-[2-(3,5-dimethoxyanilino)-5,7-dihydropyrrolo[3,4-d]pyrimidin-6-yl]azetidin-1-yl]methanone] |
| > 1000 | Cc1cc(C)cc(Nc2ncc3c(n2)CN(C2CCCN(C(=O)c4ccc5[nH]nnc5c4)C2)C3)c1 (stereo not shown) [compound 33, 1H-benzotriazol-5-yl-[3-[2-(3,5-dimethylanilino)-5,7-dihydropyrrolo[3,4-d]pyrimidin-6-yl]-1-piperidyl]methanone] |
| 0.01 to 100 | Cc1cc(C)cc(Nc2ncc3c(n2)CN(C2CCN(C(=O)c4ccc5[nH]nnc5c4)CC2F)C3)c1 (stereo not shown) [compound 40, 1H-benzotriazol-5-yl-[4-[2-(3,5-dimethylanilino)-5,7-dihydropyrrolo[3,4-d]pyrimidin-6-yl]-3-fluoro-1-piperidyl]methanone] |
| 100 to 500 | COc1cc(Nc2ncc3c(n2)CN(C2CCN(C(=O)c4ccc5[nH]nnc5c4)C2)C3)cc(OC)c1 (stereo not shown) [compound 42, 1H-benzotriazol-5-yl-[3-[2-(3,5-dimethoxyanilino)-5,7-dihydropyrrolo[3,4-d]pyrimidin-6-yl]pyrrolidin-1-yl]methanone] |
| > 1000 | Cc1cncc(Nc2ncc3c(n2)CN(C2CCN(C(=O)c4ccc(S(N)(=O)=O)cc4)CC2)C3)c1 [compound 47, 4-[4-[2-[(5-methyl-3-pyridyl)amino]-5,7-dihydropyrrolo[3,4-d]pyrimidin-6-yl]piperidine-1-carbonyl]benzenesulfonamide] |
| 500 to 1000 | Cc1cc(C)nc(Nc2ncc3c(n2)CN(C2CN(C(=O)c4ccc5[nH]nnc5c4)C2)C3)c1 [compound 51, 1H-benzotriazol-5-yl-[3-[2-[(4,6-dimethyl-2-pyridyl)amino]-5,7-dihydropyrrolo[3,4-d]pyrimidin-6-yl]azetidin-1-yl]methanone] |
| 100 to 500 | Cc1cc(C)nc(Nc2ncc3c(n2)CN(C2CN(C(=O)c4ccc5[nH]c(=O)oc5c4)C2)C3)c1 [compound 52, 6-[3-[2-[(4,6-dimethyl-2-pyridyl)amino]-5,7-dihydropyrrolo[3,4-d]pyrimidin-6-yl]azetidine-1-carbonyl]-3H-1,3-benzoxazol-2-one] |
| 100 to 500 | O=C(c1ccc2[nH]nnc2c1)N1CCC(N2Cc3cnc(Nc4cc(F)cc(F)c4)nc3C2)CC1 [compound 54, 1H-benzotriazol-5-yl-[4-[2-(3,5-difluoroanilino)-5,7-dihydropyrrolo[3,4-d]pyrimidin-6-yl]-1-piperidyl]methanone] |
| 0.01 to 100 | O=C(c1ccc2[nH]c(=O)oc2c1)N1CC(N2Cc3cnc(Nc4cc(F)cc(F)c4)nc3C2)C1 [compound 57, 6-[3-[2-(3,5-difluoroanilino)-5,7-dihydropyrrolo[3,4-d]pyrimidin-6-yl]azetidine-1-carbonyl]-3H-1,3-benzoxazol-2-one] |
| 0.01 to 100 | N#Cc1ccc(Nc2ncc3c(n2)CN(C2CN(C(=O)c4ccc5[nH]nnc5c4)C2)C3)cc1 [compound 58, 4-[[6-[1-(1H-benzotriazole-5-carbonyl)azetidin-3-yl]-5,7-dihydropyrrolo[3,4-d]pyrimidin-2-yl]amino]benzonitrile] |
